Measured values as given in the supplement of paper PMC11616607.

Legend:
Assay in all cases: drug sensitivity score (DSS) from 5-point dose-response viability curve (DSS (area-under-curve based score)); higher = more sensitive (stronger growth inhibition or killing); extreme values may be limits of the assay
Settings in all cases: exposure time: 72 h; concentration range: 5 concentrations over 10,000-fold range
[1] = tested on: OVCAR4
Outline: (§1)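 Ovarian cancer and normal ovarian cell lines were tested in 384-well plates, with drugs dispensed acoustically (Echo 550) in DMSO or water at five concentrations covering a 10,000-fold range. After 1,500 cells per well were added, plates were incubated for 3 days at 37°C and 5% CO2, and viability was read by CellTiter-Glo luminescence on a PHERAstar FS. Breeze software gave a drug sensitivity score for each cell line and drug, where a higher score means greater sensitivity. A value of zero means no response.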

[2] = tested on: COV318
Outline: as §1

[3] = tested on: COV362
Outline: as §1

[4] = tested on: OVCAR8
Outline: as §1

[5] = tested on: Kuramochi
Outline: as §1

[6] = tested on: OVCAR5
Outline: as §1

[7] = tested on: HOSE1C
Outline: as §1

[8] = tested on: OV90
Outline: as §1

[9] = tested on: HOSE2C
Outline: as §1

[10] = tested on: JHOS2
Outline: as §1

[11] = tested on: CAOV3
Outline: as §1

[12] = tested on: Ovsaho
Outline: as §1

Row | Compound | drug sensitivity score [1] | drug sensitivity score [2] | drug sensitivity score [3] | drug sensitivity score [4] | drug sensitivity score [5] | drug sensitivity score [6] | drug sensitivity score [7] | drug sensitivity score [8] | drug sensitivity score [9] | drug sensitivity score [10] | drug sensitivity score [11] | drug sensitivity score [12]
1 | COCCNCc1ccc(-c2cc3nccc(Oc4ccc(NC(=O)C5(C(=O)Nc6ccc(F)cc6)CC5)cc4F)c3s2)nc1 [Sitravatinib] | 0.7 | 0.5 | 2.3 | 0.5 | 2.5 | 4.5 | 2.6 | 1.6 | 3.3 | 1.2 | 1.9 | 0
2 | Cc1c(C(=O)Nc2ccc(N3C[C@@H](C)O[C@@H](C)C3)nc2)cccc1-c1ccc(OC(F)(F)F)cc1 [Sonidegib] | 0.2 | 2.6 | 0 | 3.3 | 4.7 | 1.2 | 1.6 | 1.3 | 1.8 | 2.2 | 0 | 2.5
3 | C=CCN(/C=C1/C(=O)O[C@H](COC)[C@@]2(C)C1=C(O)C(=O)C1=C2[C@H](OC(C)=O)C[C@]2(C)C(=O)CC[C@@H]12)CC=C [Sonolisib] | 0 | 0 | 0 | 0 | 0 | 0 | 0 | 0 | 0.6 | 0 | 0 | 0
4 | CNC(=O)c1cc(Oc2ccc(NC(=O)Nc3ccc(Cl)c(C(F)(F)F)c3)cc2)ccn1 [Sorafenib] | 0 | 0 | 0 | 0 | 0 | 0 | 0 | 0 | 0 | 0 | 0 | 0
5 | CN1CCN(c2nc(C3=C(c4c[nH]c5ccccc45)C(=O)NC3=O)c3ccccc3n2)CC1 [Sotrastaurin] | 0 | 0 | 1.5 | 0.1 | 0 | 0 | 0 | 0 | 0 | 0.2 | 1.2 | 0
6 | C=CC(=O)Nc1cccc(Nc2nc(Nc3ccc(OCCOC)cc3)ncc2F)c1 [Spebrutinib] | 2 | 2 | 0.9 | 0 | 1.6 | 1.2 | 0 | 1.3 | 0.4 | 1.9 | 0.3 | 2.2
7 | CC(C)n1cnc2c(NCCc3ccc(O)cc3)nc(-c3csc4ccccc34)nc21 [StemRegenin 1] | 1.1 | 1.1 | 2 | 1.6 | 1.3 | 4.2 | 3.8 | 1.2 | 2.2 | 1 | 0 | 1.8
8 | CCN(CC)CCNC(=O)c1c(C)[nH]c(/C=C2\C(=O)Nc3ccc(F)cc32)c1C [Sunitinib] | 0 | 0 | 0 | 0 | 0 | 0 | 0 | 0 | 0 | 0.1 | 0 | 0
9 | CC(C)(O)CC(=O)NCCn1ccc2ncnc(Nc3ccc(Oc4cccc(C(F)(F)F)c4)c(Cl)c3)c21 [TAK-285] | 0 | 0 | 0.2 | 0.1 | 0.9 | 2 | 0 | 0 | 0 | 0 | 2.5 | 0.2
10 | CCS(=O)(=O)c1cccc(-c2cc(C(=O)NC3CCN(C)CC3)c(C)c3[nH]c4ncc(C)cc4c23)c1 [TAK-901] | 5.8 | 1.4 | 1.1 | 2.8 | 6.8 | 4.7 | 3.5 | 4.6 | 7.4 | 1.2 | 16.9 | 7.5
11 | Cc1cccc(-c2[nH]c(CNc3ccccc3F)nc2-c2ccc3ncnn3c2)n1 [TEW-7197] | 0 | 0 | 5 | 0.1 | 0 | 1.3 | 0 | 0 | 0.9 | 0 | 0 | 0
12 | Nc1nc(N)c2nc(-c3cccc(O)c3)c(-c3cccc(O)c3)nc2n1 [TG100-115] | 2.3 | 0 | 0.9 | 0 | 1.2 | 0.4 | 0 | 0 | 0 | 0 | 0.3 | 0
13 | Cc1cc(C(C)Nc2ccccc2)c2nc(N3CCOCC3)cc(=O)n2c1 (stereo not given) [TGX-221] | 1.7 | 0 | 0.3 | 1.2 | 7.9 | 2.1 | 0 | 0.2 | 0 | 0 | 0.8 | 7.8
14 | Nc1nc(NC2CC2)cc(-c2cccc(Cl)c2Cl)n1 [TH588] | 1.8 | 0.9 | 0.4 | 2.4 | 1.6 | 1.9 | 0 | 0 | 0 | 0 | 1.9 | 3.7
15 | Clc1ccccc1C(c1ccccc1)(c1ccccc1)n1cccn1 [TRAM-34] | 0 | 0 | 0 | 0 | 0 | 5 | 0 | 0 | 0 | 0 | 0 | 0
16 | CC(=O)Nc1ccc(C(=O)Nc2ccccc2N)cc1 [Tacedinaline] | 0.1 | 0 | 0 | 0 | 1.7 | 3.4 | 0.6 | 1.1 | 0.7 | 0 | 0 | 0
17 | C=CC[C@@H]1/C=C(\C)C[C@H](C)C[C@H](OC)[C@H]2O[C@@](O)(C(=O)C(=O)N3CCCC[C@H]3C(=O)O[C@H](/C(C)=C/[C@@H]3CC[C@@H](O)[C@H](OC)C3)[C@H](C)[C@@H](O)CC1=O)[C@H](C)C[C@@H]2OC [Tacrolimus] | 0.3 | 0 | 0.1 | 3.4 | 1 | 0.5 | 0.3 | 0 | 0 | 1.8 | 0.5 | 0.7
18 | CN(C(=O)c1ccc(F)cc1C(F)(F)F)C1CCN(c2nnc(-c3ccnn3C)c3ccccc23)CC1 [Taladegib] | 0 | 0.1 | 0 | 0 | 0 | 0.2 | 0 | 0 | 0 | 0 | 0 | 0
19 | Cn1ncnc1[C@H]1c2n[nH]c(=O)c3cc(F)cc(c23)N[C@@H]1c1ccc(F)cc1 [Talazoparib] | 1.9 | 3.1 | 0 | 5.7 | 4.3 | 3.2 | 10.1 | 5.1 | 8.7 | 3 | 4.1 | 4
20 | C[C@@H]1CN(Cc2ccc(F)cc2)[C@@H](C)CN1C(=O)c1cc2c(C(=O)C(=O)N(C)C)cn(C)c2cc1Cl [Talmapimod] | 0 | 0 | 0 | 0 | 0 | 0 | 0 | 0 | 0 | 0 | 0 | 0
21 | COc1cc(Nc2ncc(F)c(Nc3ccc4c(n3)NC(=O)C(C)(C)O4)n2)cc(OC)c1OC [Tamatinib] | 0 | 0.3 | 0 | 0 | 1.5 | 4.5 | 0 | 0 | 6.2 | 0 | 0 | 3.8
22 | CC/C(=C(\c1ccccc1)c1ccc(OCCN(C)C)cc1)c1ccccc1 [Tamoxifen] | 0.2 | 0.6 | 0.8 | 0.8 | 2.2 | 3.9 | 7.9 | 3.7 | 1.3 | 1 | 0.6 | 2.9
23 | COc1cc2c(N3CCN(C(=O)Nc4ccc(OC(C)C)cc4)CC3)ncnc2cc1OCCCN1CCCCC1 [Tandutinib] | 0 | 0 | 0 | 0 | 0 | 0 | 0 | 0 | 0 | 0 | 0 | 0
24 | O[C@H]1CC[C@H](Nc2ncc3nc(Nc4c(F)cc(F)cc4F)n([C@H]4CCOC4)c3n2)CC1 [Tanzisertib] | 0 | 0 | 0 | 0 | 0.8 | 1.9 | 0 | 0 | 0 | 0 | 0 | 0.4
25 | C[C@@H](C(=O)O)c1ccc(-c2ccccc2)c(F)c1 [Tarenflurbil] | 0 | 0.3 | 0 | 0 | 0 | 0.3 | 0 | 1.3 | 0 | 0.7 | 0 | 0
26 | Cc1nc(-c2cn3c(n2)-c2ccc(-c4cnn(C(C)(C)C(N)=O)c4)cc2OCC3)n(C(C)C)n1 [Taselisib] | 2.1 | 2.5 | 1.9 | 2.1 | 4.1 | 7.9 | 4.5 | 0.3 | 7.8 | 3.3 | 7.5 | 3.1
27 | COc1cccc2c1c(O)c(C(=O)N(C)c1ccc(C(F)(F)F)cc1)c(=O)n2C [Tasquinimod] | 1.9 | 0 | 0 | 0 | 0.2 | 0 | 0 | 0 | 0 | 0.6 | 0 | 2
28 | CCN(c1cc(-c2ccc(CN3CCOCC3)cc2)cc(C(=O)NCc2c(C)cc(C)[nH]c2=O)c1C)C1CCOCC1 [Tazemetostat] | 0.1 | 0 | 2.3 | 0 | 0 | 0 | 0 | 0 | 0 | 2.1 | 0 | 0
29 | CNC(=O)c1cc(COc2nnc(Nc3ccc(Cl)cc3)c3ccoc23)ccn1 [Telatinib] | 0 | 0.2 | 0 | 0 | 0.1 | 0 | 0 | 0 | 0 | 0 | 0 | 0
30 | Cn1nnc2c(C(N)=O)ncn2c1=O [Temozolomide] | 0 | 0 | 0 | 0 | 0 | 0 | 0 | 0 | 0.5 | 0 | 0 | 0
